How the values were obtained:
[1] = target: T1, hM3 receptor (Homo sapiens, UniProt P20309); assay: Blockade of agonist-mediated calcium release via FLIPR assays (Assay Test Procedure D, C); type: cell-based; details: CHO cells stably expressing the hM3 receptor
T1 construct: expressed in transfected cells
Description: Muscarinic receptor subtypes (M1, M3 and M5 receptors), which couple to Gq proteins, activate the phospholipase C (PLC) pathway upon agonist binding to the receptor. As a result, activated PLC hydrolyzes phosphatyl inositol diphosphate (PIP2) to diacylglycerol (DAG) and […] (IP3), which in turn generates calcium release from intracellular stores, i.e., endoplasmic and sarcoplasmic reticulum. The FLIPR (Molecular Devices, Sunnyvale, Calif.) assay capitalizes on this increase in intracellular calcium by using a calcium sensitive dye (Fluo-4AM, Molecular Probes, Eugene, Oreg.) that fluoresces when free calcium binds. This fluorescence event is measured in real time by the FLIPR, which detects the change in fluorescence from a monolayer of cells cloned with human M1 and M3, and chimpanzee M5 receptors. Antagonist potency can be determined by the ability of antagonists to inhibit agonist-mediated increases in intracellular calcium. […]
To determine antagonist potency, the dose-dependent stimulation of intracellular Ca^2+ release for oxotremorine was first determined so that antagonist potency can later be measured against oxotremorine stimulation at an EC90 concentration. […]
The change of fluorescence is expressed as maximum fluorescence minus baseline fluorescence for each well. […]

[2] = target: T2, hM2 receptor (Homo sapiens, UniProt P08172); assay: Blockade of agonist-mediated inhibition of cAMP accumulation (Assay Test Procedure D, A); type: cell-based; details: CHO-K1 cells expressing the hM2 receptor; read-out: Ki value for blockade of oxotremorine-inhibition of forskolin-mediated cAMP accumulation
T2 construct: expressed in transfected cells; host or cells: CHO-K1 cells
T2 sequence (P08172 1-466): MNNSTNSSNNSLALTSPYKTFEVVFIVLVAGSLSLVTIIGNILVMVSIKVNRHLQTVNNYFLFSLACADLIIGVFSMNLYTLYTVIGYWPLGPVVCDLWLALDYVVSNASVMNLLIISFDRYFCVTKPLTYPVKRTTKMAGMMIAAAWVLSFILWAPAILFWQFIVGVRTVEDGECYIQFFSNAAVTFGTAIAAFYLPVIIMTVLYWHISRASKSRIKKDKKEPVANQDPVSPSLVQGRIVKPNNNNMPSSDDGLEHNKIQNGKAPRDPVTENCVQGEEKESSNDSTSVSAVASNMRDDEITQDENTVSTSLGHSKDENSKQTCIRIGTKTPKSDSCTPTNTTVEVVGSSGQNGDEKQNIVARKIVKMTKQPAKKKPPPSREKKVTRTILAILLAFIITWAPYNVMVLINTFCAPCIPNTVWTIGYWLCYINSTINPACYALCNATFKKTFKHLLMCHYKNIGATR
Description: In this assay, the functional potency of a test compound was determined by measuring the ability of the test compound to block oxotremorine-inhibition of forskolin-mediated cAMP accumulation in CHO-K1 cells expressing the hM2 receptor. cAMP assays were performed in a radioimmunoassay format using the Flashplate Adenylyl Cyclase Activation Assay System with ^125I-cAMP (NEN SMP004B, PerkinElmer Life Sciences Inc., Boston, Mass.), according to the manufacturer's instructions. Cells were rinsed once with dPBS and lifted with Trypsin-EDTA solution (0.05% trypsin/0.53 mM EDTA) as described in the Cell Culture and Membrane Preparation section above. The detached cells were washed twice by centrifugation at 650×g for five minutes in 50 mL dPBS. The cell pellet was then re-suspended in 10 mL dPBS, and the cells were counted with a Coulter Z1 Dual Particle Counter (Beckman Coulter, Fullerton, Calif.). […]
Reactions were incubated for 10 minutes at 37° C. and stopped by addition of 100 μL ice-cold detection buffer. Plates were sealed, incubated overnight at room temperature and counted the next morning on a PerkinElmer TopCount liquid scintillation counter (PerkinElmer Inc., Wellesley, Mass.). The amount of cAMP produced (pmol/well) was calculated based on the counts observed for the samples and cAMP standards, as described in the manufacturer's user manual. […]

T1 sequence (P20309 whole entry): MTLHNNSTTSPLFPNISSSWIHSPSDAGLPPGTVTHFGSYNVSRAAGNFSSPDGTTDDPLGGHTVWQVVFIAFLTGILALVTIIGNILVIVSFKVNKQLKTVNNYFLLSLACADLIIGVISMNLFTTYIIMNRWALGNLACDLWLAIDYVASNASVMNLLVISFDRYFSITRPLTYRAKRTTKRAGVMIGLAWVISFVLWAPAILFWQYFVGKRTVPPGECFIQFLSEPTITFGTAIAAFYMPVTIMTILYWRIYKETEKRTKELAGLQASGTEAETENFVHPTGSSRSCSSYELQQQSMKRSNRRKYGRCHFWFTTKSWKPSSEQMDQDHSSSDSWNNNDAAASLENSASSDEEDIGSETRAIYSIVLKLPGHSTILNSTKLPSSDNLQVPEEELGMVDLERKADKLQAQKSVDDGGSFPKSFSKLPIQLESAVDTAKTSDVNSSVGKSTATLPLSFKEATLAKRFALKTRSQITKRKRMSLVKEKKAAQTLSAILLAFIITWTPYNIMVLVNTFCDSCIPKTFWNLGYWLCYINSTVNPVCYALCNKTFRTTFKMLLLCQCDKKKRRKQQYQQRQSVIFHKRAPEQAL

SMILES: C[N+]1(CCCCCCCCCNC[C@H](O)c2ccc(O)c3[nH]c(=O)ccc23)C2CC(OC(=O)C(O)(c3cccs3)c3cccs3)CC1C1OC12.C[N+]1(CCCCCCCCCNC[C@H](O)c2ccc(O)c3[nH]c(=O)ccc23)C2CC(OC(=O)C(O)(c3cccs3)c3cccs3)CC1C1OC12.O=C([O-])C(F)(F)F.O=C([O-])C(F)(F)F (stereo partly drawn) [Example 1, 7-(2-Hydroxy-2,2-dithiophen-2-ylacetoxy)-9-{9-[(R)-2-hydroxy-2-(8-hydroxy-2-oxo-1,2-dihydroquinolin-5-yl)ethylamino]nonyl}-9-methyl-3-oxa-9-azonia-tricyclo[3.3.1.0^2,4]nonane Ditrifluoroacetate]
- Ki [1]: < 50 nM
- Ki [2]: < 50 nM
